The target of one assay is human D2 receptor (Homo sapiens, UniProt P14416). Nature of the assay: Inhibition of [3H]spiperone binding to human dopamine D2 receptors. The settings on record: human D2 (Long form), CHO K1 membranes. An excerpt:
A cell line expressing human dopamine D2 (Long form) receptors was purchased from Oregon Health Sciences University, Portland, Oreg. The D2 receptor cDNA was subcloned into an expression vector, pRc/CMV. The plasmids were transfected by electroporation into CHO K1 cells. A single stable transfectant, resistant to the antibiotic 418, was isolated and selected for use in the binding studies. For D4 binding, CHO K1 cells stably transfected to express the human recombinant dopamine D4.2 receptor subtype, as described by Shih, et al., "The expression and functional characterization of human dopamine D4.2 receptor in CHO K1 cells," Soc. Neurosci., 1995;21(Part 1):621.
CHO K1 cells expressing either human D2 and D4.2 receptors were grown in 162 cm^2 culture flasks in F12 medium (Gibco Laboratories, Grand Island, N.Y.) supplemented with 10% fetal bovine serum (FBS, Hyclone, Logan, Utah) in an atmosphere of 5% CO2 /95% air at 37° C. Cells were grown until confluent, after which growth medium was removed and replaced with 0.02% ethylene diamine tetracetate (EDTA) in a phosphate-buffered saline solution (Sigma Chemical Co., St. Louis, Mo.) and scraped from the flasks. The cells were centrifuged at about 1000×g for 10 minutes at […] and then resuspended in TEM buffer (25 mM Tris-HCl, pH 7.4, 5 mM EDTA, and 6 mM MgCl2) for D2 or the D4.2 buffer (50 mM Tris-HCl, pH 7.4, 5 mM EDTA, 1.5 mM CaCl2, 5 mM KCl, and 120 mM NaCl) and homogenized. The membranes were pelleted by centrifugation at 20,000×g at […] for 20 minutes. Then the pellets were resuspended in appropriate buffer at 1 mL/flask and stored at -70° C. until used in the receptor binding assay.
Receptor Binding Assays: D2,D4.2 Dopamine Receptors
After 60 minutes incubation at 25° C., the incubations were terminated by rapid filtration through Whatmann F/B lass fibre filters (soaked for 1 hour in 0.5% polyethylenimine) on a cell harvester, with three washes of 1 mL ice-cold buffer. Individual filter disks containing the bound ligand were placed in counting vials with 4 mL of scintillation fluid (Ready Gel, Beckman Instrument Inc., Fullerton, Calif.) and then counted in a Beckman LS-6800 liquid scintillation counter at an efficiency of 45%. Nonspecific binding was defined in presence of 1 mM of haloperidol.
Saturation and competition binding data were analyzed using an iterative nonlinear least-square curve-fitting Ligand program. In competition experiments, apparent Ki values were calculated from IC50 values by method of Cheng and Prusoff, "Relationship between the inhibition constant (Ki) and the concentration of inhibitor which causes 50% inhibition (IC50) of an enzymatic reaction," Biochem. Pharmacol., 1973;22:3099-3108. Experimental compounds were made up as stock solutions in dimethyl sulfoxide (DMSO). […] Each observation was carried out in triplicate. To allow these calculations, Ki values were measured for the interaction of various ligands with the receptor. […]

In assay [1] the test system is synthesis rates of rat brain catecholamines. The note with it: ip.
Experimental: The effects of compounds on synthesis rates of rat brain catecholamines were estimated by measuring the accumulation of [3-(3,4-dihydroxyphenyl)-L-alanine (DOPA) after administration of the L-aromatic amino acid decarboxylase inhibitor, NSD 1015 (Pugsley, et al., 1995).
Test compounds were administered to rats i.p. 30 minutes before the injection of the L-aromatic amino acid decarboxylase inhibitor, NSD 1015 (100 mg/kg i.p.). Rats were sacrificed by decapitation 30 minutes later. The striatum and mesolimbic regions were rapidly dissected from the brains and stored at -70° C. until assayed. Synthesis rates of rat brain catecholamines were estimated by measuring the accumulation of the DA precursor DOPA after NSD 1015 administration by HPLC with electrochemical detection (Puglsey, et al., 1995). Each value represents the mean of four determinations and is expressed as a percent of the control values.
Assay [2] relates to amphetamine-stimulated locomotion. Nature of the assay: Blockade of amphetamine-stimulated locomotion in rats. The assay is classed as in vivo, rat. An excerpt:
PROTOCOL FOR THE BLOCKADE OF AMPHETAMINE-STIMULATED LOCOMOTION IN RATS
The blockade of amphetamine-stimulated locomotion procedure is a modification of the Locomotor Activity Protocol in the Omnitech Digiscan Activity Monitors described above. The blockade of amphetamine-stimulated locomotion procedure uses the central nervous system stimulant d-amphetamine to assess antipsychotic activity of dopaminergic agents.
Male Sprague-Dawley rats (Harlan Labs) were used for these studies. Drugs were dissolved in saline or water, and administered either orally (PO) or intraperitoneally (IP) in volumes of 5 mL/kg. Saline control rats and amphetamine (0.5 mg/kg IP) control rats are included with each study (n=4-6 rats per treatment group). For the IP studies, amphetamine is given 20 minutes prior to the drug, after which a 30 minute locomotor activity test is conducted. For the oral study, drug is dosed 30 minutes prior to the test, while amphetamine is given 15 minutes prior to the test, which allows time for oral absorption. Locomotor activity (centimeters travelled per 30 minute test) is measured in 16"×16" open chambers. Amphetamine generally produces a 2- to 3-fold increase in locomotion over saline controls. Drug effects are reported as percent reversal of amphetamine-stimulated locomotion. Significant changes in amphetamine-stimulated locomotion, relative to amphetamine treated controls, were determined by t-test. The dose which would reverse amphetamine-stimulated locomotion by 50% (ED50) and the 95% confidence limits were estimated by regression analysis.

human D2 receptor, sequence (P14416 whole entry): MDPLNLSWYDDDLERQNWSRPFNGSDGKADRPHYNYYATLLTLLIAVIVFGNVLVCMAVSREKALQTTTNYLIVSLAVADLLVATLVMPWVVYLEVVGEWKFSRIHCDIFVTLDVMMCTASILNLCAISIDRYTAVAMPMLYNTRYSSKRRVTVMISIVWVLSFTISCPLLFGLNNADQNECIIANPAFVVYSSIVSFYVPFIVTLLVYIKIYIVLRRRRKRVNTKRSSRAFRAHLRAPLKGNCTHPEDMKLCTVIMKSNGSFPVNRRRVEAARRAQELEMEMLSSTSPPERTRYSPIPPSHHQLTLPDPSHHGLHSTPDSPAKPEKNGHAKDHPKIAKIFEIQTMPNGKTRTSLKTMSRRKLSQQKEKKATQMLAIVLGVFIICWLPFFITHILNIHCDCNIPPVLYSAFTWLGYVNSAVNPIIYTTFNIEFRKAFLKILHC

One may read the IC50 as the concentration that gives 50% inhibition. Read a high IC50 as a need for much substance. What is called ED50 is the midpoint of the dose-response relation. In the case of `Cc1ccc(N2CCN(Cc3ccc4c(c3)NCCN4)CC2)cc1C` [Example 2, 6-[4-(3,4-Dimethylphenyl)piperazin-1-ylmethyl]-1,2,3,4-tetrahydroquinoxaline], the IC50 on human D2 receptor was 2940 nM. In assay [1], the “DA Synthesis in Rat Hippocampus” value is given as “+52% of the control values” and the “DA Synthesis in Rat Striatum” value was “+66% of the control values”. In addition, the “blockade of amphetamine-stimulated locomotion (result in words)” value in assay [2] (rat, 1, 3, 10 and 30 mg/kg IP) is listed as “dose-dependent blockade”. Also, in assay [2] (rat, PO, read-out: oral blockade of amphetamine-stimulated locomotion ED50), the 50% effective dose (ED50) is 5.8 mg/kg.

Values taken from US5885994A, “Tetrahydroquinoxaline dopamine D4 receptor antagonists” (Warner-Lambert Company, priority 1998, dated 1999).
